Reference: patent US9999222B2, “Herbicidal combination comprising azines” (BASF SE, priority 2014, dated 2018)
Like-named read-outs stand apart in the source and are kept apart here.

Assays:
Test in all cases: Greenhouse test, pre-emergence treatment
EPHHL = format: in vivo, Euphorbia heterophylla; settings: Euphorbia heterophylla, pre-emergence, 480 h, 20 DAT, read-out: observed % activity
Procedure, shortened: (§1)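 Damage was rated on a 0-100 scale, with 100 meaning no emergence or full destruction of aerial parts. Observed combination effects were set against the additive Colby expectation E=X+Y−(X·Y/100). Spray liquor was water-based, from 10% emulsion concentrates, applied pre-emergence right after sowing in loamy sand (about 3.0% humus). Plants were held at 10-25 °C or 20-35 °C for 2 to 4 weeks.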

ALOMY = format: in vivo, Alopecurus myosuroides; settings: Alopecurus myosuroides, pre-emergence, 480 h, ALOMY, pre-emergence, read-out: observed % activity 20 DAT
Procedure, shortened: as §1

COMBE = format: in vivo, Commelina benghalensis; settings: Commelina benghalensis, pre-emergence, 480 h
Procedure, shortened: as §1

SETFA = format: in vivo, Setaria faberi; settings: Setaria faberi, 480 h, SETFA, individual, read-out: observed % activity 20 DAT
Procedure, shortened: as §1

LOLMU = format: in vivo, Lolium multiflorum; settings: Lolium multiflorum, pre-emergence, 480 h, LOLMU, pre-emergence, individual, use rate 6.25 g ai/ha; read-out: observed % activity 20 DAT
Procedure, shortened: as §1

KCHSC = format: in vivo, Kochia scoparia
Procedure, shortened: as §1

GALAP = format: in vivo, Galium aparine; settings: Galium aparine, pre-emergence, 480 h, pre-emergence, read-out: observed % activity 20 DAT
Procedure, shortened: as §1

POLCO = format: in vivo, Polygonum convolvulus; settings: Fallopia convolvulus, pre-emergence, 480 h; for inhibition at 6.25 g/ha: use rate 6.25 g ai/ha
Procedure, shortened: as §1

BRADC = format: in vivo, Brachiaria decumbens; settings: Urochloa decumbens, pre-emergence, 480 h, pre-emergence, 36 g ai/ha; read-out: observed % activity 20 DAT
From the text: The culture containers used were plastic flowerpots containing loamy sand with approximately 3.0% of humus as the substrate. The seeds of the test plants were sown separately for each species.
For the pre-emergence treatment, the active ingredients, which had been suspended or emulsified in water, were applied directly after sowing by means of finely distributing nozzles. The containers were irrigated gently to promote germination and growth and subsequently covered with transparent plastic hoods until the plants had rooted. This cover caused uniform germination of the test plants, unless this had been impaired by the active ingredients.
Depending on the species, the plants were kept at 10-25° C. or 20-35° C., respectively.
The test period extended over 2 to 4 weeks. During this time, the plants were tended, and their response to the individual treatments was evaluated.
Evaluation was carried out using a scale from 0 to 100. 100 means no emergence of the plants, or complete destruction of at least the aerial moieties, and 0 means no damage, or normal course of growth. A moderate herbicidal activity is given at values of at least 60, a good herbicidal activity is given at values of at least 70, and a very good herbicidal activity is given at values of at least 85.
The respective stated components a and b, and if appropriate, c were formulated as a 10% by weight strength emulsion concentrate and, with addition of the amount of solvent system, introduced into the spray liquor used for applying the active compound.
In the examples, the solvent used was water.
In the examples below, using the method of S. R. Colby (1967) “Calculating synergistic and antagonistic responses of herbicide combinations”, Weeds 15, p. 22ff., the value E, which is expected if the activity of the individual active compounds is only additive, was calculated. E=X+Y−(X·Y/100) where • X=percent activity using active compound a at an application rate A; • Y=percent activity using active compound b at an application rate B; • E=expected activity (in %) by a+b at application rates A+B.
If the value found experimentally is higher than the value E calculated according to Colby, a synergistic effect is present.

GERPU = format: in vivo, Geranium pusillum; settings: Geranium pusillum, pre-emergence, 480 h, 20 DAT, read-out: observed % activity
Procedure, shortened: as §1

ECHCG = format: in vivo, Echinocloa crus-galli; settings: Echinochloa crus-galli, 480 h, ECHCG, use rate 3.125 g ai/ha, 20 DAT, read-out: observed % activity 20 DAT
Procedure, shortened: as §1

[1] = 5 g ai/ha, 20 DAT, read-out: observed % activity
[2] = 10 g ai/ha, 20 DAT, read-out: observed % activity
[3] = 10 g ai/ha, read-out: observed % activity 20 DAT

For `CC(C)N(C)S(=O)(=O)NC(=O)c1cc(-n2c(=O)cc(C(F)(F)F)n(C)c2=O)c(F)cc1Cl` [Saflufenacil, saflufenacil], the inhibition at 5 g/ha (EPHHL; 5 g ai/ha) was 80%, the inhibition at 10 g/ha (EPHHL; 10 g ai/ha) was 95% and the inhibition at 6.25 g/ha (ALOMY; individual, use rate 6.25 g ai/ha) was 0%. It also gave an inhibition at 12.5 g/ha (ALOMY; individual, use rate 12.5 g ai/ha) of 0%, an inhibition at 3.125 g/ha (ALOMY; use rate 3.125 g ai/ha, 20 DAT) of 0% and an inhibition at 5 g/ha (COMBE; [1]) of 65%. It also gave an inhibition at 10 g/ha (COMBE; [2]) of 98%, an inhibition at 5 g/ha (COMBE; COMBE, individual, use rate 5 g ai/ha, read-out: observed % activity 20 DAT) of 0% and an inhibition at 10 g/ha (COMBE; COMBE, individual, use rate 10 g ai/ha, read-out: observed % activity 20 DAT) of 15%. For the same molecule, the inhibition at 5 g/ha (COMBE; 5 g ai/ha, read-out: observed % activity 20 DAT) was 0%, the inhibition at 10 g/ha (COMBE; [3]) was 15% and the inhibition at 6.25 g/ha (SETFA; use rate 6.25 g ai/ha) was 0%. For the same molecule, the inhibition at 12.5 g/ha (SETFA; use rate 12.5 g ai/ha) was 0%, the inhibition at 6.25 g/ha (LOLMU) was 0% and the observed % activity (KCHSC; 5 g ai/ha, 20 DAT) was 85%. For the same molecule, the inhibition at 5 g/ha (KCHSC; Bassia scoparia, pre-emergence, 480 h, 5 g ai/ha, 20 DAT, read-out: observed % activity) was 70%, the inhibition at 5 g/ha (KCHSC; Bassia scoparia, pre-emergence, 480 h, KCHSC, pre-emergence, individual, use rate 5 g ai/ha, read-out: observed % activity 20 DAT) was 70% and the inhibition at 6.25 g/ha (KCHSC; Bassia scoparia, pre-emergence, 480 h, KCHSC, pre-emergence, individual, use rate 6.25 g ai/ha, read-out: observed % activity 20 DAT) was 30%. It also gave an inhibition at 10 g/ha (KCHSC; Bassia scoparia, pre-emergence, 480 h, KCHSC, pre-emergence, individual, use rate 10 g ai/ha, read-out: observed % activity 20 DAT) of 65%, an inhibition at 12.5 g/ha (KCHSC; Bassia scoparia, pre-emergence, 480 h, KCHSC, pre-emergence, individual, use rate 12.5 g ai/ha, read-out: observed % activity 20 DAT) of 70% and an inhibition at 5 g/ha (KCHSC; Bassia scoparia, pre-emergence, 480 h, pre-emergence, 5 g ai/ha, read-out: observed % activity 20 DAT) of 70%. The inhibition at 10 g/ha (KCHSC; Bassia scoparia, pre-emergence, 480 h, pre-emergence, 10 g ai/ha, read-out: observed % activity 20 DAT) was 65%, the inhibition at 5 g/ha (GALAP; GALAP, individual, use rate 5 g ai/ha) was 25% and the inhibition at 10 g/ha (GALAP; GALAP, individual, use rate 10 g ai/ha) was 50%. The inhibition at 5 g/ha (GALAP; 5 g ai/ha) was 25%, the inhibition at 10 g/ha (GALAP; 10 g ai/ha) was 50% and the inhibition at 5 g/ha (POLCO; [1]) was 60%. The inhibition at 10 g/ha (POLCO; [2]) was 65%, the inhibition at 6.25 g/ha (POLCO; POLCO, individual, read-out: observed % activity 20 DAT) was 70% and the inhibition at 10 g/ha (POLCO; POLCO, individual, use rate 10 g ai/ha, read-out: observed % activity 20 DAT) was 25%. For the same molecule, the inhibition at 12.5 g/ha (POLCO; POLCO, individual, use rate 12.5 g ai/ha, read-out: observed % activity 20 DAT) was 85%, the inhibition at 10 g/ha (POLCO; [3]) was 25% and the inhibition at 6.25 g/ha (POLCO; POLCO, 20 DAT, read-out: observed % activity 20 DAT) was 70%. For the same molecule, the inhibition at 36 g/ha (BRADC) was 90%, the inhibition at 5 g/ha (GERPU; 5 g ai/ha) was 25% and the inhibition at 10 g/ha (GERPU; 10 g ai/ha) was 25%. It also gave an inhibition at 3.125 g/ha (ECHCG) of 0%.
